This note sets out measurements from patent US7622594B2, “Glucocortioid mimetics, methods of making them, pharmaceutical compositions, and uses thereof” (Boehringer Ingelheim Pharmaceuticals, Inc., priority 2005, dated 2009).

This assay relates to IL-6 production in human foreskin fibroblast cells. The experiment in a line: Inhibition of IL-6 production in fibroblasts (cell assay for transrepression). The assay is classed as cell-based. The settings on record: IL-1 stimulated human foreskin fibroblasts. The method, then: Human foreskin fibroblast cells produce IL-6 in response to stimulation by proinflammatory cytokine IL-1.
Human foreskin fibroblast cells (ATCC Cat. No. CRL-2429) are plated on 96 well plates at 5,000 cells per well the day before use, in Iscove's Modified Dulbecco's Media (GibcoBRL Life Technologies Cat. No. 12440-053) supplemented with 10% charcoal filtered FBS (Clonetech Cat. No. SH30068) and Gentamycin (GibcoBRL Life Technologies Cat. No. 15710-064). On the next day, media in the wells is replaced with fresh media. Cells are treated with IL-1 (rhIL-1α, R&D Systems Cat. No. 200-LA) to a final concentration of 1 ng/mL, and with test compounds to final concentrations of 10^−5 M to 10^−8 M, in a total volume of 200 μL per well. Samples are done in duplicates. […] Positive control wells receive IL-1 only and represent maximum (or 100%) amount of IL-6 production. Plates are incubated at 37° C. overnight (15 to 18 hours), and supernatants are harvested at the end of incubation. IL-6 levels in the supernatants are determined by the ELISA kits for IL-6 (MedSystems Diagnostics GmbH, Vienna, Austria, Cat. No. BMS213TEN) according to manufacture's instructions. The extent of inhibition of IL-6 by test compounds is expressed in percentage relative to positive controls. IC50 values of test compounds are derived by non-linear curve fitting.
For `OC(c1ccc(F)c(Cl)c1)(c1ccc2c(cnn2-c2ccccc2)c1)C(F)(F)F` (stereo not shown) [1-(3-Chloro-4-fluorophenyl)-2,2,2-trifluoro-1-(1-phenyl-1H-indazol-5-yl)ethanol], the “agonistic activity by inhibiting IL-6 production in Fibroblasts” value was “agonistic activity”. Turning to `OC(c1ccc2c(cnn2-c2ccc(F)cc2)c1)(c1ccc(F)c2ccccc12)C(F)(F)F` (stereo not shown) [2,2,2-Trifluoro-1-(4-fluoronaphthalen-1-yl)-1-[1-(4-fluorophenyl)-1H-indazol-5-yl]ethanol], the “agonistic activity by inhibiting IL-6 production in Fibroblasts” value is “agonistic activity”.

As to `OC(c1ccc2c(cnn2-c2ccc(F)cc2)c1)(c1csc2ccccc12)C(F)(F)F` (stereo not shown) [1-Benzo[b]thiophen-3-yl-2,2,2-trifluoro-1-[1-(4-fluorophenyl)-1H-indazol-5-yl]ethanol], the “agonistic activity by inhibiting IL-6 production in Fibroblasts” value was “agonistic activity”.

For the compound `Cc1ccc(C(O)(c2ccc3c(cnn3-c3ccc(F)cc3)c2)C(F)(F)F)c2ccccc12` (stereo not shown) [2,2,2-Trifluoro-1-[1-(4-fluorophenyl)-1H-indazol-5-yl]-1-(4-methylnaphthalen-1-yl)ethanol], the “agonistic activity by inhibiting IL-6 production in Fibroblasts” value is “agonistic activity”. On to `OC(c1ccc2c(cnn2-c2ccccc2)c1)(c1cccc2ccccc12)C(F)(F)F` (stereo not shown) [2,2,2-Trifluoro-1-naphthalen-1-yl-1-(1-phenyl-1H-indazol-5-yl)ethanol], for which the “agonistic activity by inhibiting IL-6 production in Fibroblasts” value is given as “agonistic activity”. As to `OC(c1ccc2c(cnn2-c2ccccc2)c1)(c1ccc(F)c2ccccc12)C(F)(F)F` (stereo not shown) [2,2,2-Trifluoro-1-(4-fluoronaphthalen-1-yl)-1-(1-phenyl-1H-indazol-5-yl)ethanol], the “agonistic activity by inhibiting IL-6 production in Fibroblasts” value is listed as “agonistic activity”. For `OC(c1ccc2c(cnn2-c2ccccc2)c1)(c1csc2ccccc12)C(F)(F)F` (stereo not shown) [1-Benzo[b]thiophen-3-yl-2,2,2-trifluoro-1-(1-phenyl-1H-indazol-5-yl)ethanol] the value was “agonistic activity”; for `OC(c1ccc2c(cnn2-c2ccc(F)cc2)c1)(c1cccc2ccccc12)C(F)(F)F` (stereo not shown) [2,2,2-Trifluoro-1-[1-(4-fluorophenyl)-1H-indazol-5-yl]-1-naphthalen-1-ylethanol], “agonistic activity”; for `OC(c1ccc2c(cnn2-c2ccccc2)c1)(c1ccnc2ccccc12)C(F)(F)F` (stereo not shown) [2,2,2-Trifluoro-1-(1-phenyl-1H-indazol-5-yl)-1-quinolin-4-ylethanol], “agonistic activity”. Under `OC(c1ccc(F)c(Cl)c1)(c1ccc2c(cnn2-c2ccc(F)cc2)c1)C(F)(F)F` (stereo not shown) [1-(3-Chloro-4-fluorophenyl)-2,2,2-trifluoro-1-[1-(4-fluorophenyl)-1H-indazol-5-yl]ethanol] stands “agonistic activity”.
